Source: patent publication US20250263733A1, “TARGETED GENE INTEGRATION IN PLANTS” (LIMAGRAIN EUROPE, priority 2021, published 2025)

Tested on: Ubi7DL gene
Experiment: NGS sequencing of transformed plantlets for mutations at the gRNA target site around the STOP codon of Ubi7DL
Parameters: species or system wheat var. Fielder
Details: 59 of 97 events; multiplex G1, G2, G3 guides with Cas9; all mutations generated with G3
Excerpt: The strategy for GT at Ubi7DL is outlined in FIG. 1 and is based on the method of in planta GT (Fauser et al. 2012). A Cas9 gRNA (G3 SEQ ID NO: 8) that efficiently makes a DNA double strand break (DSB) around the STOP codon of the Ubi7DL gene was first identified by Agrobacterium-mediated transformation into wheat var. Fielder with a binary plasmid containing a TaU6-tRNA multiplex guide (SEQ ID NO: 10) expressing 3 guides G1 (SEQ ID NO: 6), G2 (SEQ ID NO: 7) and G3 (SEQ ID NO: 8) under control of promoter TaU6 (SEQ ID NO: 9), together with ZmUbi (SEQ ID NO: 11)-Cas9 (SEQ ID NO: 13)-nos terminator (SEQ ID NO: 12) and pActin-Bar-nos cassettes. These 3 target sites are around the STOP codon of Ubi7DL. Fielder wheat cultivar was transformed with these Agrobacterium strains essentially as described by WO2000/063398.

Substance: G3: Cas9 gRNA (SEQ ID NO: 8) making a double strand break around the STOP codon of Ubi7DL (guide CAGGAGCTTACTGGCCACCA; listed as DNA, chemistry not given here; listed as Triticum aestivum) [Line G3]
- independent transformation events with mutations at the target site: 61%
